In paper PMC12196321, “Discovery of Novel Inhibitors of Aspergillus fumigatus DHODH via Virtual Screening, MD Simulation, and In Vitro Activity Assay” (Molecules, 2025):

Biological target: T1, Aspergillus fumigatus dihydroorotate dehydrogenase (AfDHODH) (Aspergillus fumigatus, UniProt Q4X169)
T1 construct: gene AFUA_2G11010; residues 89–531 with an N-terminal His-tag
T1 sequence (Q4X169 89-531): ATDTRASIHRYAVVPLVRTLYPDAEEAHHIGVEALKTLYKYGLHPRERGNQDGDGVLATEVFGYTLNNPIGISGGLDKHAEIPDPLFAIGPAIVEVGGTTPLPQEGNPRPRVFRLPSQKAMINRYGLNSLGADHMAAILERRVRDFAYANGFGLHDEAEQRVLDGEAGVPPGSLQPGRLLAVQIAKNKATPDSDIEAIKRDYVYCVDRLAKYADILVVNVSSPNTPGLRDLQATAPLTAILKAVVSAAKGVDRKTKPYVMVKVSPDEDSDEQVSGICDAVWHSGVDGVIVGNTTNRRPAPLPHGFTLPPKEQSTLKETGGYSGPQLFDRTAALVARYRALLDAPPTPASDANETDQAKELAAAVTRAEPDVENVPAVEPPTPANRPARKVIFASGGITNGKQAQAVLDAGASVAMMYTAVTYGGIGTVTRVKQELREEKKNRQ
Experiment: DCIP colorimetric enzyme assay (absorbance at […] nm)
Format: biochemical

SMILES	IC50
COC(=O)c1c(NC(=S)NNC(=O)c2ccc(Cl)s2)sc(C(=O)N(C)C)c1C [CHEMBL1509241]	16.9 µM
COC(=O)c1c(NC(=S)NNC(=O)c2ccc(Cl)s2)sc(C(=O)N(C)C)c1C [ZINC67300323]	57.3 µM
